Active and inactive are the calls of the source. No cut-off for these calls is given here.
How the values were obtained:
Homo sapiens = species on record: Homo sapiens; assay: Selectivity index, ratio of IC50 for human recombinant HDAC1 to IC50 for human recombinant HDAC6
B16 [1] = assay: Growth inhibition of mouse B16 cells incubated for 48 hrs by MTT assay; format: functional; settings: for GI50: B16, 48 h
B16 [2] = assay: Inhibition of Class 1 histone deacetylase in mouse B16 cells assessed as increase in histone H3 acetylation at 10 uM incubated for 24 hrs by Western blotting; format: cell-based
[3] = target: T1, Protein deacetylase HDAC6 (Mus musculus) (UniProt Q9Z2V5); assay: Inhibition of HDAC6 in mouse B16 cells assessed as increase in acetyl alpha-tubulin level incubated for 24 hrs by Western blotting; format: cell-based
T1 sequence (whole entry): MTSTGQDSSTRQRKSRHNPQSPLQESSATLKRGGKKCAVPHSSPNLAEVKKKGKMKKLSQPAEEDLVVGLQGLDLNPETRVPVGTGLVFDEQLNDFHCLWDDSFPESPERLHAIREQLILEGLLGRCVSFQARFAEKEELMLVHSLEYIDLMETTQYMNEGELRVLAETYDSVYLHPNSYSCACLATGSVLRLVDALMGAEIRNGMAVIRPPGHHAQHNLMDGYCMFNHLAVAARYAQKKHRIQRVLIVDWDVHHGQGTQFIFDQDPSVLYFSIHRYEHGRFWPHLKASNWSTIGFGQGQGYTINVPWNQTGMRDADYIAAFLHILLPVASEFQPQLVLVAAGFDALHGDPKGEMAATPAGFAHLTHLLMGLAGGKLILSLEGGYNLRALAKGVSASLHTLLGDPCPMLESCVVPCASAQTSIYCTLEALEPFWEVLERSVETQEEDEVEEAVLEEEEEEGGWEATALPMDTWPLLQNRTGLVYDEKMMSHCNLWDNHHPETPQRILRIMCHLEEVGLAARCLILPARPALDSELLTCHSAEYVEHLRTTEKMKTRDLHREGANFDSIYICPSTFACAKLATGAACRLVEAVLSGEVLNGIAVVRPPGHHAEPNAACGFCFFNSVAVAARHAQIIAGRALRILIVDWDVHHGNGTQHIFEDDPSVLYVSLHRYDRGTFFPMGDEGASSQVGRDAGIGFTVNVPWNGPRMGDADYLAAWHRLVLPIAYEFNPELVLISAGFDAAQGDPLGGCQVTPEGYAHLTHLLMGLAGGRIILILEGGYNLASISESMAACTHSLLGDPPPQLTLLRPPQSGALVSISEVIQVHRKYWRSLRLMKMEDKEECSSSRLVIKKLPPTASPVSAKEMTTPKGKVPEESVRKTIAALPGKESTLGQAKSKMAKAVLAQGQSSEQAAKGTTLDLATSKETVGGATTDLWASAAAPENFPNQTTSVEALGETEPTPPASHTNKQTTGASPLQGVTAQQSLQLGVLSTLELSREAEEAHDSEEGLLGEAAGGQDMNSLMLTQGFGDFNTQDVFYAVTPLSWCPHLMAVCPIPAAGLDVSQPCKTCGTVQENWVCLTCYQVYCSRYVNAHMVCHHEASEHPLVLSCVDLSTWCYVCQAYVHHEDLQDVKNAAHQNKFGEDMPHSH

B16 [4] = assay: Inhibition of Class 1 histone deacetylase in mouse B16 cells assessed as increase in histone H3 acetylation at 1 uM incubated for 24 hrs by Western blotting; format: cell-based
B16 [5] = assay: Inhibition of Class 1 histone deacetylase in mouse B16 cells assessed as increase in histone H3 acetylation at 1 to 100 nM incubated for 24 hrs by Western blotting; format: cell-based

Row | inhibition [3] | SMILES | Ratio IC50 (Homo sapiens) | growth inhibition (GI) (B16 [1]) | GI50 (B16 [1]) [µM] | inhibition (B16 [2]) | inhibition (B16 [4]) | inhibition (B16 [5])
1 |  | COCCN(Cc1ccc(C(=O)NO)cc1)C(=O)Nc1ccccc1 | 243 | Dose-dependent effect |  |  |  | 
2 |  | COc1ccccc1NC(=O)N(CCCN(C)C)Cc1ccc(C(=O)NO)cc1 | 6 | Dose-dependent effect | 75.3 |  |  | 
3 |  | COc1ccccc1NC(=O)N(CCc1ccc(O)cc1)Cc1ccc(C(=O)NO)cc1 | 292 | Dose-dependent effect | 18.4 |  |  | 
4 |  | Cc1[nH]c2ccccc2c1CCNCc1ccc(/C=C/C(=O)NO)cc1 [PANOBINOSTAT] |  | Dose-dependent effect | 0.15 |  |  | 
5 |  | COc1ccccc1NC(=O)NCc1ccc(C(=O)NO)cc1 | 2 |  |  |  |  | 
6 |  | CCCCN(C(=O)NCc1ccc(C(=O)NO)cc1)c1ccccc1 | 322 | Dose-dependent effect | 65.8 |  |  | 
7 |  | O=C(NO)c1ccc(CN(CCc2ccccc2)C(=O)Nc2ccccc2)cc1 | 222 | Dose-dependent effect | 15.4 |  |  | 
8 |  | COc1ccccc1NC(=O)N(CCCO)Cc1ccc(C(=O)NO)cc1 | 803 | Dose-dependent effect | > 100 |  |  | 
9 |  | CCN(C(=O)NCc1ccc(C(=O)NO)cc1)c1ccccc1 | 330 | Dose-dependent effect | > 100 |  |  | 
10 |  | COc1ccccc1NC(=O)N(CCc1c[nH]c2ccccc12)Cc1ccc(C(=O)NO)cc1 | 19 | Dose-dependent effect | 30.4 |  |  | 
11 |  | COCCCN(C(=O)NCc1ccc(C(=O)NO)cc1)c1ccccc1 | 226 | Dose-dependent effect | > 100 |  |  | 
12 |  | CN1CCc2c(c3ccccc3n2Cc2ccc(C(=O)NO)cc2)C1 [TUBASTATIN A] |  | Dose-dependent effect | 40.5 |  |  | 
13 |  | COCCCN(Cc1ccc(C(=O)NO)cc1)C(=O)Nc1ccccc1 | 443 | Dose-dependent effect | 22.2 |  |  | 
14 | Dose-dependent effect | CCCCN(Cc1ccc(C(=O)NO)cc1)C(=O)Nc1ccccc1 |  | Dose-dependent effect |  | Active | Active | inactive
